# Data: patent US6683027B2, “Herbicidal mixtures” (BASF Aktienegesellschaft, priority 2000, dated 2004)
# Legend:
# Experiment in all cases: greenhouse pre-emergence trial, percent damage vs untreated control 21 days after treatment
# Assay type in all cases: in vivo
# Matricaria inodora = conditions: MATIN, Example 2
# Veronica persica = conditions: VERPE, Example 2
# Stellaria media = conditions: 30 g/ha, STEME, Example 2
# Papaver rhoeas = conditions: PAPRH, Example 2
# Galium aparine = conditions: GALAP, Example 2
# Lolium perenne = conditions: 15 g/ha, LOLPE, Example 2
structure (smiles),measurement,setting,value
CC(C)N(C(=O)COc1nnc(C(F)(F)F)s1)c1ccc(F)cc1 [flufenacet],flufenacet alone (% control),Matricaria inodora; 15 g/ha,0%
same,flufenacet alone (% control),Matricaria inodora; 30 g/ha,0%
same,flufenacet alone (% control),Veronica persica; 15 g/ha,0%
same,flufenacet alone (% control),Veronica persica; 30 g/ha,10%
same,flufenacet alone (% control),Veronica persica; 60 g/ha,10%
same,flufenacet alone (% control),Stellaria media,0%
same,flufenacet alone (% control),Papaver rhoeas; 15 g/ha,0%
same,flufenacet alone (% control),Papaver rhoeas; 30 g/ha,0%
same,flufenacet alone (% control),Papaver rhoeas; 60 g/ha,0%
same,flufenacet alone (% control),Galium aparine; 15 g/ha,0%
same,flufenacet alone (% control),Galium aparine; 30 g/ha,10%
same,flufenacet alone (% control),Galium aparine; 60 g/ha,55%
same,flufenacet alone (% control),Lolium perenne,30%
